The source of these data is US20230286923A1 (INIPHARM, INC., priority 2020, published 2023).

HSD17B13 enzyme, sequence (Q7Z5P4 20-300): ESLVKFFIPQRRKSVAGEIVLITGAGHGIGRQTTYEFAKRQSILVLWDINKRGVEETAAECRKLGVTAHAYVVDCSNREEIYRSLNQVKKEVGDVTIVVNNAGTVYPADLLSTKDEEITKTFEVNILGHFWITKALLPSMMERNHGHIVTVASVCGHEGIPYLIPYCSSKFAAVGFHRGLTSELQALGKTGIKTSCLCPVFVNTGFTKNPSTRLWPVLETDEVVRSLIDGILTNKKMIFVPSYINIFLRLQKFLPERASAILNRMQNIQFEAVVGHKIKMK

The test deals with HSD17B13 enzyme (Homo sapiens (Human), UniProt Q7Z5P4). Briefly: Estrone detection assay (LC/MS, conversion of estradiol to estrone) for HSD17B13 activity. Type of test: biochemical. The following applies: substrate 4 µM estradiol, 6 mM NAD+, 30 nM enzyme. On the procedure:
The liquid chromatography/mass spectrometry (LC/MS) estrone detection assay monitors the conversion of estradiol to estrone by HSD17B13. This assay was undertaken in a 96wp format (Eppendorf deep well Plate 96/500) in an 80 µl reaction volume containing: 4 µM of Estradiol (E2; Cayman; #10006315), 6 mM NAD^+ (Sigma; #N0623) and 30 nM HSD17B13 enzyme (in-house; E. coli expressed His-tagged, purified, soluble protein) in a reaction containing 1 M potassium phosphate buffer pH 7.4, with 0.5% vehicle (DMSO). Reactions were incubated for 2 hours at 26.5° C., and estradiol (E2) conversion to estrone (E1) was quantitated by LC-MS/MS based analyte detection for both E2 and E1 using LCMS grade reagents.
Reactions were terminated by the addition of two volumes of acetonitrile (MeCN; LCMS grade; CAS# 75/05/8) containing deuterated (D4)-E1 used as internal standard (Clear Synth; #CS-T-54273; 500 ng/mL final concentration). Samples were applied to pre-prepared Bond Elut-C18 extraction cartridges (3 mL; Agilent; #12102028), washed and eluted in MeCN. Eluates were dried under nitrogen and re-suspended in 60% methanol (LCMS grade methanol; CAS# 67/56/1) before submission for analysis. Aqueous linearity for E2 and E1 were included for quantification.
Analysis of samples was undertaken on a XBridge BEH C18 column (Waters; #186003033) using 0.1% Diethyl Amine in MeCN (mobile phase A; DEA CAS# 109-89-7) and 0.1% Diethyl Amine in milli-Q water (mobile phase B) in a 3 min gradient allowing 25%B. Analytes were detected in negative mode using MRM analysis, with E2 having a RT of 1.85 min and E1 having a RT of 2 min. Activity of the enzyme, in the absence of NAD^+, was used to evaluate specificity of conversion. Enzyme activity in the presence of test samples was expressed as a percentage of the uninhibited enzyme activity, and plotted versus inhibitor concentration. Non-linear regression was performed using a four-parameter logistic model and GraphPad Prism software (GraphPad Software, La Jolla, CA). All assessments were undertaken in duplicate evaluations and pooled during extraction process and subsequently injected as duplicates for LC-MS/MS analysis.
One may read the IC50 as the point on the concentration scale where inhibition reaches its midpoint. Read a low IC50 as inhibition by little substance. Regarding `CC(C)(C)CCn1cnc2cccc(NC(=O)c3cnc(O)c(Cl)c3)c2c1=O` [Example 12, 5-chloro-N-(3-(3,3-dimethylbutyl)-4-oxo-3,4-dihydroquinazolin-5-yl)-6-hydroxynicotinamide], the IC50 lay within 1 to 10 µM. The same measure for `CC(C)(C)CCn1cnc2cccc(NC(=O)c3ccc(-c4nnn[nH]4)c(Cl)c3)c2c1=O` [Example 13, 3-chloro-N-(3-(3,3-dimethylbutyl)-4-oxo-3,4-dihydroquinazolin-5-yl)-4-(1H-tetrazol-5-yl)benzamide]: 1 to 10 µM; for `O=C(Nc1cccc2ncn(Cc3ccc(F)cc3)c(=O)c12)c1cc(Cl)c(O)c(C(F)(F)F)c1` [Example 35, 3-chloro-N-(3-(4-fluorobenzyl)-4-oxo-3,4-dihydroquinazolin-5-yl)-4-hydroxy-5-(trifluoromethyl)benzamide]: 0.1 to 1 µM; for `O=C(Nc1cccc2ncn(Cc3nncs3)c(=O)c12)c1cc(Cl)c(O)c(C(F)(F)F)c1` [Example 36, N-(3-((1,3,4-thiadiazol-2-yl)methyl)-4-oxo-3,4-dihydroquinazolin-5-yl)-3-chloro-4-hydroxy-5-(trifluoromethyl)benzamide]: 1 to 10 µM. In turn, `N#Cc1cc(C(=O)Nc2cccc3ncn(Cc4ccccc4F)c(=O)c23)cc(Cl)c1O` [Example 37, 3-chloro-5-cyano-N-(3-(2-fluorobenzyl)-4-oxo-3,4-dihydroquinazolin-5-yl)-4-hydroxybenzamide] had an IC50 of 0.1 to 1 µM.

As to `C[C@@H](c1cccc(F)c1)n1cnc2cccc(NC(=O)c3cc(Cl)c(O)c(C#N)c3)c2c1=O` [Example 38, (S)-3-chloro-5-cyano-N-(3-(1-(3-fluorophenyl)ethyl)-4-oxo-3,4-dihydroquinazolin-5-yl)-4-hydroxybenzamide], the IC50 lay in the range of 0.1 to 1 µM. Next, `O=C(Nc1cccc2ncn(Cc3ccccc3C(F)(F)F)c(=O)c12)c1cc(Cl)c(O)c(C(F)(F)F)c1` [Example 39, 3-chloro-4-hydroxy-N-(4-oxo-3-(2-(trifluoromethyl)benzyl)-3,4-dihydroquinazolin-5-yl)-5-(trifluoromethyl)benzamide]: 0.1 to 1 µM.

`O=C(Nc1cccc2ncn(Cc3cccc(F)c3)c(=O)c12)c1cc(C(F)(F)F)c(O)c(C(F)(F)F)n1` [Example 40, N-(3-(3-fluorobenzyl)-4-oxo-3,4-dihydroquinazolin-5-yl)-5-hydroxy-4,6-bis(trifluoromethyl)picolinamide] displayed an IC50 of 0.1 to 1 µM.

As for `O=C(Nc1cccc2ncn(Cc3ccccc3F)c(=O)c12)c1cc(Cl)c(O)c(C(F)(F)F)c1` [Example 41, 3-chloro-N-(3-(2-fluorobenzyl)-4-oxo-3,4-dihydroquinazolin-5-yl)-4-hydroxy-5-(trifluoromethyl)benzamide], the IC50 fell in the range of 0.1 to 1 µM. Next, `O=C(Nc1cccc2ncn(Cc3cocn3)c(=O)c12)c1cc(Cl)c(O)c(C(F)(F)F)c1` [Example 42]: 1 to 10 µM; `C[C@@H](c1cccc(F)c1)n1cnc2cccc(NC(=O)c3cc(Cl)c(O)c(C(F)(F)F)n3)c2c1=O` [Example 43, (S)-4-chloro-N-(3-(1-(3-fluorophenyl)ethyl)-4-oxo-3,4-dihydroquinazolin-5-yl)-5-hydroxy-6-(trifluoromethyl)picolinamide]: 0.1 to 1 µM. `N#Cc1cc(C(=O)Nc2cccc3ncn(Cc4ccc(F)cc4)c(=O)c23)cc(F)c1O` [Example 44, 3-cyano-5-fluoro-N-(3-(4-fluorobenzyl)-4-oxo-3,4-dihydroquinazolin-5-yl)-4-hydroxybenzamide] had a 50% inhibitory concentration (IC50) of no more than 0.1 µM. The same measure for `O=C(Nc1cccc2ncn(Cc3ccccc3F)c(=O)c12)c1cc(Cl)c(O)c(C(F)(F)F)n1` [Example 45, 4-chloro-N-(3-(2-fluorobenzyl)-4-oxo-3,4-dihydroquinazolin-5-yl)-5-hydroxy-6-(trifluoromethyl)picolinamide]: 0.1 to 1 µM. Compound `O=C(Nc1cccc2ncn(Cc3ccc(C(F)(F)F)cc3)c(=O)c12)c1cc(Cl)c(O)c(C(F)(F)F)c1` [Example 46, 3-chloro-4-hydroxy-N-(4-oxo-3-(4-(trifluoromethyl)benzyl)-3,4-dihydroquinazolin-5-yl)-5-(trifluoromethyl)benzamide] yielded a concentration for half-maximal inhibition (IC50) of 0.1 to 1 µM.

As to `C[C@@H](c1cccc(F)c1)n1cnc2cccc(NC(=O)c3cc(F)c(O)c(C#N)c3)c2c1=O` [Example 47, (S)-3-cyano-5-fluoro-N-(3-(1-(3-fluorophenyl)ethyl)-4-oxo-3,4-dihydroquinazolin-5-yl)-4-hydroxybenzamide], the IC50 is no more than 0.1 µM. The same measure for `N#Cc1cc(C(=O)Nc2cccc3ncn(Cc4cccc(OC(F)(F)F)c4)c(=O)c23)cc(Cl)c1O` [Example 48, 3-chloro-5-cyano-4-hydroxy-N-(4-oxo-3-(3-(trifluoromethoxy)benzyl)-3,4-dihydroquinazolin-5-yl)benzamide]: 0.1 to 1 µM; for `N#Cc1cc(C(=O)Nc2cccc3ncn(Cc4cccc(F)c4)c(=O)c23)cc(Cl)c1O` [Example 49, 3-chloro-5-cyano-N-(3-(3-fluorobenzyl)-4-oxo-3,4-dihydroquinazolin-5-yl)-4-hydroxybenzamide]: 0.1 to 1 µM; for `O=C(Nc1cccc2ncn(Cc3ccccc3OC(F)(F)F)c(=O)c12)c1cc(Cl)c(O)c(C(F)(F)F)n1` [Example 50, 4-chloro-5-hydroxy-N-(4-oxo-3-(2-(trifluoromethoxy)benzyl)-3,4-dihydroquinazolin-5-yl)-6-(trifluoromethyl)picolinamide]: 0.1 to 1 µM.

Compound `O=C(Nc1cccc2ncn(Cc3ccc(C(F)(F)F)cc3)c(=O)c12)c1cc(Cl)c(O)c(C(F)(F)F)n1` [Example 51, 4-chloro-5-hydroxy-N-(4-oxo-3-(4-(trifluoromethyl)benzyl)-3,4-dihydroquinazolin-5-yl)-6-(trifluoromethyl)picolinamide] returned an IC50 of 1 to 10 µM. The same measure for `N#Cc1cc(C(=O)Nc2cccc3ncn(Cc4ccccc4C(F)(F)F)c(=O)c23)cc(F)c1O` [Example 52, 3-cyano-5-fluoro-4-hydroxy-N-(4-oxo-3-(2-(trifluoromethyl)benzyl)-3,4-dihydroquinazolin-5-yl)benzamide]: no more than 0.1 µM. The same measure for `N#Cc1cc(C(=O)Nc2cccc3ncn(Cc4ccc(OC(F)(F)F)cc4)c(=O)c23)cc(F)c1O` [Example 53, 3-cyano-5-fluoro-4-hydroxy-N-(4-oxo-3-(4-(trifluoromethoxy)benzyl)-3,4-dihydroquinazolin-5-yl)benzamide]: 0.1 to 1 µM. In the case of `NC(=O)c1cc(C(=O)Nc2cccc3ncn(Cc4cccc(C(F)(F)F)c4)c(=O)c23)cc(F)c1O` [Example 54, 5-fluoro-4-hydroxy-N1-(4-oxo-3-(3-(trifluoromethyl)benzyl)-3,4-dihydroquinazolin-5-yl)isophthalamide], the IC50 fell in the range of 1 to 10 µM.

As to `O=C(Nc1cccc2ncn(Cc3ccccc3C(F)(F)F)c(=O)c12)c1cc(Cl)c(O)c(C(F)(F)F)n1` [Example 55, 4-chloro-5-hydroxy-N-(4-oxo-3-(2-(trifluoromethyl)benzyl)-3,4-dihydroquinazolin-5-yl)-6-(trifluoromethyl)picolinamide], the IC50 was 0.1 to 1 µM.

The compound `N#Cc1cc(C(=O)Nc2cccc3ncn(Cc4cccc(OC(F)(F)F)c4)c(=O)c23)cc(F)c1O` [Example 56, 3-cyano-5-fluoro-4-hydroxy-N-(4-oxo-3-(3-(trifluoromethoxy)benzyl)-3,4-dihydroquinazolin-5-yl)benzamide] displayed an IC50 of 0.1 to 1 µM. Next, `N#Cc1cc(C(=O)Nc2cccc3ncn(Cc4cccc(C(F)(F)F)c4)c(=O)c23)cc(F)c1O` [Example 57, 3-cyano-5-fluoro-4-hydroxy-N-(4-oxo-3-(3-(trifluoromethyl)benzyl)-3,4-dihydroquinazolin-5-yl)benzamide]: no more than 0.1 µM; `N#Cc1cc(C(=O)Nc2cccc3ncn(Cc4ccc(OC(F)(F)F)cc4)c(=O)c23)cc(Cl)c1O` [Example 58, 3-chloro-5-cyano-4-hydroxy-N-(4-oxo-3-(4-(trifluoromethoxy)benzyl)-3,4-dihydroquinazolin-5-yl)benzamide]: 0.1 to 1 µM. The same measure for `N#Cc1cc(C(=O)Nc2cccc3ncn(Cc4ccc(C(F)(F)F)cc4)c(=O)c23)cc(F)c1O` [Example 59, 3-cyano-5-fluoro-4-hydroxy-N-(4-oxo-3-(4-(trifluoromethyl)benzyl)-3,4-dihydroquinazolin-5-yl)benzamide]: no more than 0.1 µM; for `N#Cc1ccccc1Cn1cnc2cccc(NC(=O)c3cc(F)c(O)c(C#N)c3)c2c1=O` [Example 60, 3-cyano-N-{3-[(2-cyanophenyl)methyl]-4-oxo-3,4-dihydroquinazolin-5-yl}-5-fluoro-4-hydroxybenzamide]: no more than 0.1 µM.
